For 13 compounds, Wee1 degradation and percent Wee1 degradation results are on record in patent publication US12318452B2, “Degraders of WEE1 kinase” (DANA-FARBER CANCER INSTITUTE, INC., priority 2018, dated 2025).

Wee1, sequence (P30291 whole entry): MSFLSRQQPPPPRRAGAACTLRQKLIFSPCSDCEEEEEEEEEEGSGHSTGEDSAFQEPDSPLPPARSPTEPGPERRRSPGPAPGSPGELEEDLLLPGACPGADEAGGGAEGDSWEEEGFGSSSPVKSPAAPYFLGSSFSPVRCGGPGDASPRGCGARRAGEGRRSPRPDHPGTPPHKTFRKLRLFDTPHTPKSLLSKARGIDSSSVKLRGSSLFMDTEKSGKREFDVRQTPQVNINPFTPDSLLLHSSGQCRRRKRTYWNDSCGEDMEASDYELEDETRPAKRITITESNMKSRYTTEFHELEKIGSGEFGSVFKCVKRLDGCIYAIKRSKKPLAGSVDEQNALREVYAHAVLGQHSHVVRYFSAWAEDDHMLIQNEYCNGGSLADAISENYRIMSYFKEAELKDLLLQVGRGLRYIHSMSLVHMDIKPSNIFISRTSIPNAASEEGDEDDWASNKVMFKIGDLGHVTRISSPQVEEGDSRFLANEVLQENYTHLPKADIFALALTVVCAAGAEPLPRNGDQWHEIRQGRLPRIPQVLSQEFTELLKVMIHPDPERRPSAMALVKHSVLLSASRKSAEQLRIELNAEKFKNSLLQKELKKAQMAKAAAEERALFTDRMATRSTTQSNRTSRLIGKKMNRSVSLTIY

One experiment has as its target Wee1 (Homo sapiens, UniProt P30291). In words: Cellular degradation of Wee1 by immunoblot, 6-hour treatment of MOLT4 cells. The class given is cell-based. Set-up: endogenous in cells; host or cells: MOLT4 (wild type; CRBN-/- as control). Conditions: MOLT4 cells, immunoblot. Here is the method: General Protocol: HT-29, MOLT4 wild type (WT) or CRBN^-/- cells were plated in a 6 well plate and treated for 6 hours with the indicated concentrations of the inventive compounds and control. HT-29 cells were cultured in McCoy's Media supplemented with 10% FBS and 1% Penicillin/Streptomycin. MOLT4 WT and CRBN^-/- cells were cultured in Roswell Park Memorial Institute (RPMI) medium supplemented with 10% FBS and 1% Penicillin/Streptomycin. Mycoplasma testing was performed every month and all lines were negative. Immunoblotting: Cells were washed with phosphate-buffered saline (PBS) and then lysed using radioimmunoprecipitation assay (RIPA) buffer supplemented with protease and phosphatase inhibitor cocktail (Roche) on ice for 15 minutes. The lysates were centrifuged at 14,000 rpm for 15 minutes at 4° C. and protein was quantified by bicinchoninic acid (BCA) assay (PierceTM). Primary antibodies used include: Wee1 ([…]) (Cell Signaling Technology®, 13084S), polo-like kinase 1 (PLK1) (Thermo Fisher Scientific, 37-7000), phosphor-cdc2 (Y15) (10A11) (Cell Signaling Technology®, […]), phospho-histone H3 ([…]) (Cell Signaling Technology®, […]), Ikaros ([…]) (Cell Signaling Technology®, 14859S), Aiolos ([…]) (Cell Signaling Technology®, 15103), casein kinase 1 alpha (Abcam®, 108296), β-actin (Cell Signaling Technology®, 8H10D10). FIG. 2A is an immunoblot showing that compound 13 degraded Wee1 after a 6-hour treatment in MOLT4 cells, and induced the downstream changes expected from Wee1 loss-including a decrease in phosphorylated cyclin-dependent kinase 1 (pCDK1) (Y15) and an increase in pH 3. […] Degradation of Wee1 by compound 13 was rescued in MOLT4 CRBN^-/- cells. MOLT4 WT and CRBN^-/- cells were plated in a 6-well plate at 2.25 million cells per well in 3 mL media (RPMI+10% FBS+1% Penn/Strep). After treatment with the indicated concentrations of candidate compounds, cells were incubated for 6 hours at 37° C. 5% CO2. To harvest, the cells were washed 1× with cold PBS, then collected by centrifugation. Cell pellets were lysed in RIPA buffer with protease and phosphatase inhibitors (Roche). Lysates were clarified by centrifugation, and protein concentrations were normalized using a BCA assay (Thermo ScientificTM). The samples were diluted with 4×LDS+10% β-mercaptoethanol, and were boiled at 95° C. for 5 minutes. Proteins of interest were then assessed by western blotting. […] The experimental protocol was the same as in Example 28.
Background: In western blotting, separated proteins are transferred to a membrane and probed.
Consider `C=CCn1c(=O)c2cnc(Nc3ccc(N4CCN(CCCCCC(=O)N[C@H](C(=O)N5C[C@H](O)C[C@H]5C(=O)N[C@@H](C)c5ccc(-c6scnc6C)cc5)C(C)(C)C)CC4)cc3)nc2n1-c1cccc(C(C)(C)O)n1` [Compound 21, tert-butyl (2S,4R)-1-((S)-2-(6-(4-(4-((2-allyl-1-(6-(2-hydroxypropan-2-yl)pyridin-2-yl)-3-oxo-2,3-dihydro-1H-pyrazolo[3,4-d]pyrimidin-6-yl)amino)phenyl)piperazin-1-yl)hexanamido)-3,3-dimethylbutanoyl)-4-hydroxy-N—((S)-1-(4-(4-methylthiazol-5-yl)phenyl)ethyl)pyrrolidine-2-carboxamide], for which the Wee1 degradation result is “Degradation of Wee1 was also observed”.

The experiment is the same for the next values; noted with them: MOLT-4, 1 μM, MOLT4 cells, approximated by immunoblot, read-out: Extent of Degradation of Wee1.
Regarding `C=CCn1c(=O)c2cnc(Nc3ccc(N4CCN(CCCNc5cccc6c5C(=O)N(C5CCC(=O)NC5=O)C6=O)CC4)cc3)nc2n1-c1cccc(OC)n1` (centres unmarked) [Compound 17, 4-((3-(4-(4-((2-Allyl-1-(6-methoxypyridin-2-yl)-3-oxo-2,3-dihydro-1H-pyrazolo[3,4-d]pyrimidin-6-yl)amino)phenyl)piperazin-1-yl)propyl)amino)-2-(2,6-dioxopiperidin-3-yl)isoindoline-1,3-dione], the percent Wee1 degradation at 1 µM is over 50%.
On the same count and under the same terms, for `C=CCn1c(=O)c2cnc(Nc3ccc(N4CCN(C(=O)CCOCCOCCOCCN5CCN(Cc6ccc(COc7cccc8c7CN([C@H]7CCC(=O)NC7=O)C8=O)cc6)CC5)CC4)cc3)nc2n1-c1cccc(C(C)(C)O)n1` [Compound 9, (S)-3-(4-((4-((4-(2-(2-(2-(3-(4-(4-((2-allyl-1-(6-(2-hydroxypropan-2-yl)pyridin-2-yl)-3-oxo-2,3-dihydro-1H-pyrazolo[3,4-d]pyrimidin-6-yl)amino)phenyl)piperazin-1-yl)-3-oxopropoxy)ethoxy)ethoxy)ethyl)piperazin-1-yl)methyl)benzyl)oxy)-1-oxoisoindolin-2-yl)piperidine-2,6-dione] the value was over 50%.
On the same count and under the same terms, for `C=CCn1c(=O)c2cnc(Nc3ccc(N4CCN(CCCCCC(=O)N[C@H](C(=O)N5C[C@H](O)C[C@H]5C(=O)N[C@@H](C)c5ccc(-c6scnc6C)cc5)C(C)(C)C)CC4)cc3)nc2n1-c1cccc(C(C)(C)O)n1` [Compound 21, tert-butyl (2S,4R)-1-((S)-2-(6-(4-(4-((2-allyl-1-(6-(2-hydroxypropan-2-yl)pyridin-2-yl)-3-oxo-2,3-dihydro-1H-pyrazolo[3,4-d]pyrimidin-6-yl)amino)phenyl)piperazin-1-yl)hexanamido)-3,3-dimethylbutanoyl)-4-hydroxy-N—((S)-1-(4-(4-methylthiazol-5-yl)phenyl)ethyl)pyrrolidine-2-carboxamide] the value was under 25%.
For `C=CCn1c(=O)c2cnc(Nc3ccc(N(C)CCCCNc4ccc5c(c4)C(=O)N(C4CCC(=O)NC4=O)C5=O)cc3)nc2n1-c1cccc(C(C)(C)O)n1` (centres unmarked) [Compound 16, 5-((4-((4-((2-Allyl-1-(6-(2-hydroxypropan-2-yl)pyridin-2-yl)-3-oxo-2,3-dihydro-1H-pyrazolo[3,4-d]pyrimidin-6-yl)amino)phenyl)(methyl)amino)butyl)amino)-2-(2,6-dioxopiperidin-3-yl)isoindoline-1,3-dione], the percent Wee1 degradation at 1 µM was over 50%.
Turning to `C=CCn1c(=O)c2cnc(Nc3ccc(N4CCN(C(=O)CCOCCOCCOCCOCCNc5cccc6c5C(=O)N(C5CCC(=O)NC5=O)C6=O)CC4)cc3)nc2n1-c1cccc(C(C)(C)O)n1` (centres unmarked) [Compound 1, 4-((15-(4-(4-((2-allyl-1-(6-(2-hydroxypropan-2-yl)pyridin-2-yl)-3-oxo-2,3-dihydro-1H-pyrazolo[3,4-d]pyrimidin-6-yl)amino)phenyl)piperazin-1-yl)-15-oxo-3,6,9,12-tetraoxapentadecyl)amino)-2-(2,6-dioxopiperidin-3-yl)isoindoline-1,3-dione], the percent Wee1 degradation at 1 µM was under 25%.
Take `C=CCn1c(=O)c2cnc(Nc3ccc(N4CCN(C(=O)CCOCCNc5cccc6c5C(=O)N(C5CCC(=O)NC5=O)C6=O)CC4)cc3)nc2n1-c1cccc(C(C)(C)O)n1` (centres unmarked) [Compound 5, 4-((2-(3-(4-(4-((2-allyl-1-(6-(2-hydroxypropan-2-yl)pyridin-2-yl)-3-oxo-2,3-dihydro-1H-pyrazolo[3,4-d]pyrimidin-6-yl)amino)phenyl)piperazin-1-yl)-3-oxopropoxy)ethyl)amino)-2-(2,6-dioxopiperidin-3-yl)isoindoline-1,3-dione]: the percent Wee1 degradation at 1 µM was over 50%.
Turning to `C=CCn1c(=O)c2cnc(Nc3ccc(N(C)CCCCNc4cccc5c4C(=O)N(C4CCC(=O)NC4=O)C5=O)cc3)nc2n1-c1cccc(C(C)(C)O)n1` (centres unmarked) [Compound 15, 4-((4-((4-((2-Allyl-1-(6-(2-hydroxypropan-2-yl)pyridin-2-yl)-3-oxo-2,3-dihydro-1H-pyrazolo[3,4-d]pyrimidin-6-yl)amino)phenyl)(methyl)amino)butyl)amino)-2-(2,6-dioxopiperidin-3-yl)isoindoline-1,3-dione], the percent Wee1 degradation at 1 µM was in the range of 25 to 50%.
On the same count and under the same terms, for `C=CCn1c(=O)c2cnc(Nc3ccc(N4CCN(C(=O)CCCCCCCCOc5cccc6c5C(=O)N(C5CCC(=O)NC5=O)C6=O)CC4)cc3)nc2n1-c1cccc(C(C)(C)O)n1` (centres unmarked) [Compound 6, 4-((9-(4-(4-((2-allyl-1-(6-(2-hydroxypropan-2-yl)pyridin-2-yl)-3-oxo-2,3-dihydro-1H-pyrazolo[3,4-d]pyrimidin-6-yl)amino)phenyl)piperazin-1-yl)-9-oxononyl)oxy)-2-(2,6-dioxopiperidin-3-yl)isoindoline-1,3-dione] the value was 25 to 50%; for `C=CCn1c(=O)c2cnc(Nc3ccc(N4CCN(C(=O)CCOCCOCCNc5cccc6c5CN(C5CCC(=O)NC5=O)C6=O)CC4)cc3)nc2n1-c1cccc(C(C)(C)O)n1` (centres unmarked) [Compound 4, 3-(4-((2-(2-(3-(4-(4-((2-allyl-1-(6-(2-hydroxypropan-2-yl)pyridin-2-yl)-3-oxo-2,3-dihydro-1H-pyrazolo[3,4-d]pyrimidin-6-yl)amino)phenyl)piperazin-1-yl)-3-oxopropoxy)ethoxy)ethyl)amino)-1-oxoisoindolin-2-yl)piperidine-2,6-dione], 25 to 50%.
The same measure, in the same setting: for `C=CCn1c(=O)c2cnc(Nc3ccc(N4CCN(CCCNC(=O)CCOCCOCCOCCOCCNc5cccc6c5C(=O)N(C5CCC(=O)NC5=O)C6=O)CC4)cc3)nc2n1-c1cccc(C(C)(C)O)n1` (centres unmarked) [Compound 8, N-(3-(4-(4-((2-allyl-1-(6-(2-hydroxypropan-2-yl)pyridin-2-yl)-3-oxo-2,3-dihydro-1H-pyrazolo[3,4-d]pyrimidin-6-yl)amino)phenyl)piperazin-1-yl)propyl)-1-((2-(2,6-dioxopiperidin-3-yl)-1,3-dioxoisoindolin-4-yl)amino)-3,6,9,12-tetraoxapentadecan-15-amide] the value was over 50%.
The same measure, in the same setting: for `C=CCn1c(=O)c2cnc(Nc3ccc(N4CCN(CCCNc5cccc6c5C(=O)N(C5CCC(=O)NC5=O)C6=O)CC4)cc3)nc2n1-c1cccc(C(F)(F)F)n1` (centres unmarked) [Compound 18, 4-((3-(4-(4-((2-Allyl-3-oxo-1-(6-(trifluoromethyl)pyridin-2-yl)-2,3-dihydro-1H-pyrazolo[3,4-d]pyrimidin-6-yl)amino)phenyl)piperazin-1-yl)propyl)amino)-2-(2,6-dioxopiperidin-3-yl)isoindoline-1,3-dione] the value was over 50%; for `C=CCn1c(=O)c2cnc(Nc3ccc(N4CCN(CCCNC(=O)CCOCCOCCOCCN5CCN(Cc6ccc(COc7cccc8c7CN([C@H]7CCC(=O)NC7=O)C8=O)cc6)CC5)CC4)cc3)nc2n1-c1cccc(C(C)(C)O)n1` [Compound 10, (S)—N-(3-(4-(4-((2-Allyl-1-(6-(2-hydroxypropan-2-yl)pyridin-2-yl)-3-oxo-2,3-dihydro-1H-pyrazolo[3,4-d]pyrimidin-6-yl)amino)phenyl)piperazin-1-yl)propyl)-3-(2-(2-(2-(4-(4-(((2-(2,6-dioxopiperidin-3-yl)-1-oxoisoindolin-4-yl)oxy)methyl)benzyl)piperazin-1-yl)ethoxy)ethoxy)ethoxy)propanamide], 25 to 50%; for `C=CCn1c(=O)c2cnc(Nc3ccc(N4CCN(C(=O)CCOCCOCCNc5cccc6c5C(=O)N(C5CCC(=O)NC5=O)C6=O)CC4)cc3)nc2n1-c1cccc(C(C)(C)O)n1` (centres unmarked) [Compound 3, 4-((2-(2-(3-(4-(4-((2-allyl-1-(6-(2-hydroxypropan-2-yl)pyridin-2-yl)-3-oxo-2,3-dihydro-1H-pyrazolo[3,4-d]pyrimidin-6-yl)amino)phenyl)piperazin-1-yl)-3-oxopropoxy)ethoxy)ethyl)amino)-2-(2,6-dioxopiperidin-3-yl)isoindoline-1,3-dione], over 50%.
